Results reported in ChEMBL document CHEMBL1201862, “PubChem BioAssay data set” (2004).
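Five compound concentrations were applied to cells in 96-well plates for 48 hours; endpoints were derived by simple linear interpolation of the resulting dose-response curve. GI50 marks 50% less growth.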 Active and inactive are the calls of the source. Rule as the data show it: active = GI50 up to about 1.1 µM and inactive = higher.

Assays:
Experiment in all cases: NCI-60 cell line screen, 48 h
HOP-18 = system: HOP-18
M19-MEL = system: M19-MEL
HCT-116 = system: HCT-116
786-0 = system: 786-0
RXF 393 = system: RXF 393
MDA-MB-435 = system: MDA-MB-435
UACC-62 = system: UACC-62
OVCAR-5 = system: OVCAR-5
HCC 2998 = system: HCC 2998
SR = system: SR
OVCAR-8 = system: OVCAR-8
DMS-114 = system: DMS-114
LOX IMVI = system: LOX IMVI
NCI-H23 = system: NCI-H23
DU-145 = system: DU-145
DLD-1 = system: DLD-1
NCI-H522 = system: NCI-H522
SF-268 = system: SF-268
CAKI-1 = system: CAKI-1
SK-OV-3 = system: SK-OV-3
MCF7 = system: MCF7
A498 = system: A498
NCI-H226 = system: NCI-H226
HOP-92 = system: HOP-92
A549 = system: A549
HCT-15 = system: HCT-15
CCRF-CEM = system: CCRF-CEM
SW-620 = system: SW-620
RPMI-8226 = system: RPMI-8226
UO-31 = system: UO-31
TK-10 = system: TK-10
SK-MEL-2 = system: SK-MEL-2
T47D = system: T47D
SF-295 = system: SF-295
K562 = system: K562
MDA-N = system: MDA-N
BT-549 = system: BT-549
MOLT-4 = system: MOLT-4
OVCAR-3 = system: OVCAR-3
SNB-19 = system: SNB-19
HOP-62 = system: HOP-62
EKVX = system: EKVX
U-251 = system: U-251
IGROV-1 = system: IGROV-1
XF498 = system: XF498
Malme-3M = system: Malme-3M
SK-MEL-5 = system: SK-MEL-5
SN12C = system: SN12C
NCI/ADR-RES = system: NCI/ADR-RES
ACHN = system: ACHN
KM-20L2 = system: KM-20L2
SF-539 = system: SF-539
DMS-273 = system: DMS-273
SNB-75 = system: SNB-75
UACC-257 = system: UACC-257
PC-3 = system: PC-3
KM12 = system: KM12
Hs-578T = system: Hs-578T
LXFL 529 = system: LXFL 529
HT-29 = system: HT-29
NCI-H460 = system: NCI-H460
OVCAR-4 = system: OVCAR-4
MDA-MB-231 = system: MDA-MB-231
HL-60 = system: HL-60
M14 = system: M14
SK-MEL-28 = system: SK-MEL-28
COLO 205 = system: COLO 205
SNB-78 = system: SNB-78
RXF 631 = system: RXF 631

CCCCCC/C=C1\CCC(CN(C)C)C1=O (stereo not given)
GI50 (HOP-18): 15.4 µM (inactive)
GI50 (M19-MEL): 2.59 µM (inactive)
GI50 (HCT-116): 3.56 µM (inactive)
GI50 (786-0): 1.98 µM (inactive)
GI50 (RXF 393): 3.51 µM (inactive)
GI50 (MDA-MB-435): 8.04 µM (inactive)
GI50 (UACC-62): 5.64 µM (inactive)
GI50 (OVCAR-5): 16.9 µM (inactive)
GI50 (HCC 2998): 5.74 µM (inactive)
GI50 (SR): 1.85 µM (inactive)
GI50 (OVCAR-8): 4.44 µM (inactive)
GI50 (DMS-114): 4.24 µM (inactive)
GI50 (LOX IMVI): 1.89 µM (inactive)
GI50 (NCI-H23): 8.73 µM (inactive)
GI50 (DU-145): 20.1 µM (inactive)
GI50 (DLD-1): 2.23 µM (inactive)
GI50 (NCI-H522): 2.85 µM (inactive)
GI50 (SF-268): 5.35 µM (inactive)
GI50 (CAKI-1): 4.75 µM (inactive)
GI50 (SK-OV-3): 20.3 µM (inactive)
GI50 (MCF7): 1.86 µM (inactive)
GI50 (A498): 17 µM (inactive)
GI50 (NCI-H226): 18.7 µM (inactive)
GI50 (HOP-92): 11.4 µM (inactive)
GI50 (A549): 19.8 µM (inactive)
GI50 (HCT-15): 2.44 µM
GI50 (CCRF-CEM): 1.83 µM (inactive)
GI50 (SW-620): 2.56 µM (inactive)
GI50 (RPMI-8226): 0.641 µM (active)
GI50 (UO-31): 15.4 µM (inactive)
GI50 (TK-10): 3.53 µM (inactive)
GI50 (SK-MEL-2): 13 µM (inactive)
GI50 (T47D): 2.86 µM (inactive)
GI50 (SF-295): 12.7 µM (inactive)
GI50 (K562): 2.4 µM (inactive)
GI50 (MDA-N): 5.47 µM (inactive)
GI50 (BT-549): 18.9 µM (inactive)
GI50 (MOLT-4): 3.05 µM (inactive)
GI50 (OVCAR-3): 6.61 µM (inactive)
GI50 (SNB-19): 15.4 µM (inactive)
GI50 (HOP-62): 19.6 µM (inactive)
GI50 (EKVX): 16 µM (inactive)
GI50 (U-251): 4.25 µM (inactive)
GI50 (IGROV-1): 10.5 µM (inactive)
GI50 (XF498): 3.31 µM (inactive)
GI50 (Malme-3M): 7.23 µM (inactive)
GI50 (SK-MEL-5): 14.3 µM (inactive)
GI50 (SN12C): 3.74 µM (inactive)
GI50 (NCI/ADR-RES): 7.38 µM (inactive)
GI50 (ACHN): 9.64 µM (inactive)
GI50 (KM-20L2): 8.73 µM (inactive)
GI50 (SF-539): 15.1 µM (inactive)
GI50 (DMS-273): 4.15 µM (inactive)
GI50 (SNB-75): 11 µM (inactive)
GI50 (UACC-257): 7.71 µM (inactive)
GI50 (PC-3): 11.5 µM (inactive)
GI50 (KM12): 2.48 µM (inactive)
GI50 (Hs-578T): 7 µM (inactive)
GI50 (LXFL 529): 1.99 µM (inactive)
GI50 (HT-29): 4.81 µM (inactive)
GI50 (NCI-H460): 16.6 µM (inactive)
GI50 (OVCAR-4): 19.6 µM (inactive)
GI50 (MDA-MB-231): 6.43 µM (inactive)
GI50 (HL-60): 1.52 µM (inactive)
GI50 (M14): 4.73 µM (inactive)
GI50 (SK-MEL-28): 4.14 µM (inactive)
GI50 (COLO 205): 3.15 µM (inactive)

COC12OCCN(C)C1=CC(=O)C1N=NCC12 (stereo not given)
GI50 (HOP-18): > 100 µM (inactive)
GI50 (M19-MEL): > 100 µM (inactive)
GI50 (HCT-116): > 100 µM (inactive)
GI50 (786-0): > 100 µM (inactive)
GI50 (RXF 393): > 100 µM (inactive)
GI50 (UACC-62): > 100 µM (inactive)
GI50 (HCC 2998): > 100 µM (inactive)
GI50 (OVCAR-8): > 100 µM (inactive)
GI50 (DMS-114): > 100 µM (inactive)
GI50 (LOX IMVI): > 100 µM (inactive)
GI50 (NCI-H23): > 100 µM (inactive)
GI50 (DLD-1): > 100 µM (inactive)
GI50 (NCI-H522): > 100 µM (inactive)
GI50 (CAKI-1): > 100 µM (inactive)
GI50 (SK-OV-3): > 100 µM (inactive)
GI50 (A498): > 100 µM (inactive)
GI50 (NCI-H226): > 100 µM (inactive)
GI50 (HOP-92): > 100 µM (inactive)
GI50 (A549): > 100 µM (inactive)
GI50 (HCT-15): > 100 µM
GI50 (CCRF-CEM): > 100 µM (inactive)
GI50 (SW-620): > 100 µM (inactive)
GI50 (RPMI-8226): > 100 µM (inactive)
GI50 (UO-31): > 100 µM (inactive)
GI50 (TK-10): > 100 µM (inactive)
GI50 (SF-295): > 100 µM (inactive)
GI50 (K562): > 100 µM (inactive)
GI50 (MOLT-4): > 100 µM (inactive)
GI50 (OVCAR-3): > 100 µM (inactive)
GI50 (SNB-78): > 100 µM (inactive)
GI50 (EKVX): > 100 µM (inactive)
GI50 (U-251): > 100 µM (inactive)
GI50 (IGROV-1): > 100 µM (inactive)
GI50 (SK-MEL-5): > 100 µM (inactive)
GI50 (SN12C): > 100 µM (inactive)
GI50 (SF-539): > 100 µM (inactive)
GI50 (DMS-273): > 100 µM (inactive)
GI50 (SNB-75): > 100 µM (inactive)
GI50 (UACC-257): > 100 µM (inactive)
GI50 (KM12): > 100 µM (inactive)
GI50 (LXFL 529): > 100 µM (inactive)
GI50 (RXF 631): > 100 µM (inactive)
GI50 (HT-29): > 100 µM (inactive)
GI50 (NCI-H460): > 100 µM (inactive)
GI50 (HL-60): > 100 µM (inactive)
GI50 (M14): > 100 µM (inactive)
GI50 (SK-MEL-28): > 100 µM (inactive)
GI50 (COLO 205): > 100 µM (inactive)
